Results from patent publication US20120219615A1, “Therapeutic Use of a TLR Agonist and Combination Therapy” (The Trustees of the University of Pennsylvania, priority 2010, published 2012).
Where two headings read alike, the source gives them in different places.

Experiments:
[1] = Phase I clinical study: pharmacokinetics after subcutaneous administration; format: in vivo; conditions: human; for DN AUC(0-∞) / DN Cmax: dose normalized; for DN AUC(0-∞) / DN Cmax / AUC(0-inf) / Cmax / half-life / Tmax: first dose; for AUC(0-inf) / Cmax / half-life / Tmax: plasma, sc
Experimental: Study Procedures: VTX-2337 was administered weekly via subcutaneous injection on Days 1, 8, and 15 of a 28-day dosing cycle for two cycles. Using a modified Fibonacci dose-escalation scheme, successive cohorts received doses ranging from 0.1 mg/m^2 to 3.9 mg/m^2 of VTX-2337. Plasma samples were collected for pharmacokinetic analysis after the first dose of the first treatment cycle and for pharmacodynamic analyses after the first dose of the first and second treatment cycles.
Samples were collected at 0.5, 1, 1.5, 2, 4, 8, and 24 hours after subcutaneous administration of the first dose of VTX-2337 and plasma levels of VTX-2337 were quantified by LC-MS/MS. VTX-2337 was rapidly absorbed into systemic circulation with the mean Tmax occurring between 0.5 and 0.8 hours following dosing. […] Peak plasma levels (Cmax) and total systemic exposure both increased with increasing dose. Dose normalized (DN) values for Cmax and AUC(0-∞) were calculated.

[2] = molecular target: T1, TLR7 (Homo sapiens, UniProt Q9NYK1); assay: HEK293 cells transfected with TLR7 and NF-κB driven reporter gene; format: cell-based; conditions: HEK293 transfectants
T1 construct: expressed in transfected cells; host or cells: HEK293
T1 sequence (Q9NYK1 27-1049): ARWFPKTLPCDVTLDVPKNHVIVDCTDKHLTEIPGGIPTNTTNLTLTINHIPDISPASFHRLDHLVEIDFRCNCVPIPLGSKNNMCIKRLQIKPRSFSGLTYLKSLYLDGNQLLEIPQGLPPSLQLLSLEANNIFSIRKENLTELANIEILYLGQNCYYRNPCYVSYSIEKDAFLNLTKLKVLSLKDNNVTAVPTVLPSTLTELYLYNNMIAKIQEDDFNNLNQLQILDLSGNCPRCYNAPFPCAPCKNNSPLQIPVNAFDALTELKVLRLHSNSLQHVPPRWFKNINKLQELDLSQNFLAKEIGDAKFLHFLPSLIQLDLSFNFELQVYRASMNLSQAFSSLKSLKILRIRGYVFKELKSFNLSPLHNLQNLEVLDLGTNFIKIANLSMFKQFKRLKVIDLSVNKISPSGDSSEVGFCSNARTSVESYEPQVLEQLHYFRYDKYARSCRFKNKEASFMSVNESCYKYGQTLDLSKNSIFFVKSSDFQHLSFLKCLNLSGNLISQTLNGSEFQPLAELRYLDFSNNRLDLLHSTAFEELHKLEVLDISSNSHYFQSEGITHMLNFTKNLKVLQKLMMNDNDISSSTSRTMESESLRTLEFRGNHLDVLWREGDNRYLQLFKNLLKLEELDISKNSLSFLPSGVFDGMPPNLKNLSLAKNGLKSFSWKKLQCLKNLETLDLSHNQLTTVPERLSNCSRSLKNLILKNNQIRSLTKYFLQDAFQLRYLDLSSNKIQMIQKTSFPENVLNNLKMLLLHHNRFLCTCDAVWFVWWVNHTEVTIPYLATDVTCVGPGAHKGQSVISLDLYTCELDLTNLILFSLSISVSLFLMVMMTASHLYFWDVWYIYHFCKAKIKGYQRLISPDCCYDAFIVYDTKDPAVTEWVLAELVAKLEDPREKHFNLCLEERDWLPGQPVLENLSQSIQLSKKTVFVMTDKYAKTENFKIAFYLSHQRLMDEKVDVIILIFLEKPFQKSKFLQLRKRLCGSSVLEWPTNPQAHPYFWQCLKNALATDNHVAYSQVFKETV
Experimental: The half-maximal effective concentration (EC50) for VTX-2337 activation of TLR8 and TLR7 was assessed in peripheral blood mononuclear cells (PBMCs) from 15 healthy donors and also in HEK293 cells transfected with TLR8 or TLR7 and an NF-κB driven reporter gene. […] Also it was observed that VTX-2337 had no activity on TLR2, TLR3, TLR4, TLR5, TLR6, or TLR9 at concentrations up to 25 μM.

In the case of `CCCN(CCC)C(=O)C1=Cc2ccc(-c3ccc(C(=O)N4CCCC4)cc3)cc2N=C(N)C1` [VTX-2337, 2-amino-N,N-dipropyl-8-(4-(pyrrolidine-1-carbonyl)phenyl)-3H-benzo[b]azepine-4-carboxamide], the “DN AUC(0-∞)” value ([1]; s.c., 0.1 mg/m^2) is reported as 31.2 (ng · hr/mL)/(mg/m^2), the “DN Cmax” value ([1]; s.c., 0.1 mg/m^2) is reported as 15.2 (ng/ml)/(mg/m^2) and the “DN AUC(0-∞)” value ([1]; s.c., 0.2 mg/m^2) is reported as 23.7 (ng · hr/mL)/(mg/m^2). The “DN Cmax” value ([1]; s.c., 0.2 mg/m^2) was 9.9 (ng/ml)/(mg/m^2), the “DN AUC(0-∞)” value ([1]; s.c., 0.4 mg/m^2) was 27.4 (ng · hr/mL)/(mg/m^2) and the “DN Cmax” value ([1]; s.c., 0.4 mg/m^2) was 16.7 (ng/ml)/(mg/m^2). For the same compound, the “DN AUC(0-∞)” value ([1]; s.c., 0.8 mg/m^2) was 24.0 (ng · hr/mL)/(mg/m^2), the “DN Cmax” value ([1]; s.c., 0.8 mg/m^2) was 7.4 (ng/ml)/(mg/m^2) and the “DN AUC(0-∞)” value ([1]; s.c., 1.3 mg/m^2) was 22.7 (ng · hr/mL)/(mg/m^2). The “DN Cmax” value ([1]; s.c., 1.3 mg/m^2) was 8.4 (ng/ml)/(mg/m^2), the “DN AUC(0-∞)” value ([1]; s.c., 2.0 mg/m^2) was 29.6 (ng · hr/mL)/(mg/m^2) and the “DN Cmax” value ([1]; s.c., 2.0 mg/m^2) was 7.3 (ng/ml)/(mg/m^2). The “DN AUC(0-∞)” value ([1]; s.c., 2.8 mg/m^2) was 28.7 (ng · hr/mL)/(mg/m^2), the “DN Cmax” value ([1]; s.c., 2.8 mg/m^2) was 7.1 (ng/ml)/(mg/m^2) and the “DN AUC(0-∞)” value ([1]; s.c., 3.9 mg/m^2) was 20.8 (ng · hr/mL)/(mg/m^2). For the same compound, the “DN Cmax” value ([1]; s.c., 3.9 mg/m^2) was 5.9 (ng/ml)/(mg/m^2), the “pharmacokinetics over the dose ranges evaluated” value ([1]; s.c., 0.1-3.9 mg/m^2) was “appeared to be linear” and the AUC(0-inf) ([1]; 0.1 mg/m^2 (~0.0022 mg/kg)) was 3.12 ng·h/mL. For the same compound, the Cmax ([1]; 0.1 mg/m^2 (~0.0022 mg/kg)) was 1.52 ng/mL, the AUC(0-inf) ([1]; 0.2 mg/m^2 (~0.0054 mg/kg)) was 4.74 ng·h/mL and the Cmax ([1]; 0.2 mg/m^2 (~0.0054 mg/kg)) was 1.97 ng/mL. It also gave an AUC(0-inf) ([1]; 0.4 mg/m^2 (~0.011 mg/kg)) of 10.9 ng·h/mL, a Cmax ([1]; 0.4 mg/m^2 (~0.011 mg/kg)) of 6.69 ng/mL and an AUC(0-inf) ([1]; 0.8 mg/m^2 (~0.022 mg/kg)) of 19.2 ng·h/mL. It also gave a Cmax ([1]; 0.8 mg/m^2 (~0.022 mg/kg)) of 5.93 ng/mL, an AUC(0-inf) ([1]; 1.3 mg/m^2 (~0.035 mg/kg)) of 29.5 ng·h/mL and a Cmax ([1]; 1.3 mg/m^2 (~0.035 mg/kg)) of 10.9 ng/mL. For the same compound, the AUC(0-inf) ([1]; 2.0 mg/m^2 (~0.054 mg/kg)) was 59.1 ng·h/mL, the Cmax ([1]; 2.0 mg/m^2 (~0.054 mg/kg)) was 14.6 ng/mL and the AUC(0-inf) ([1]; 2.8 mg/m^2 (~0.076 mg/kg)) was 80.3 ng·h/mL. For the same compound, the Cmax ([1]; 2.8 mg/m^2 (~0.076 mg/kg)) was 19.9 ng/mL, the AUC(0-inf) ([1]; 3.9 mg/m^2 (~0.105 mg/kg)) was 81.1 ng·h/mL and the Cmax ([1]; 3.9 mg/m^2 (~0.105 mg/kg)) was 23 ng/mL. For the same compound, the half-life ([1]; s.c., 0.1 mg/m^2 (~0.0022 mg/kg), read-out: T1/2 (converted)) was 1.7 h, the Tmax ([1]; s.c., 0.1 mg/m^2 (~0.0022 mg/kg), read-out: Tmax) was 0.5 h and the half-life ([1]; s.c., 0.2 mg/m^2 (~0.0054 mg/kg), read-out: T1/2 (converted)) was 3 h. It also gave a Tmax ([1]; s.c., 0.2 mg/m^2 (~0.0054 mg/kg), read-out: Tmax) of 0.8 h, a half-life ([1]; s.c., 0.4 mg/m^2 (~0.011 mg/kg), read-out: T1/2 (converted)) of 6.6 h and a Tmax ([1]; s.c., 0.4 mg/m^2 (~0.011 mg/kg), read-out: Tmax) of 0.5 h. For the same compound, the half-life ([1]; s.c., 0.8 mg/m^2 (~0.022 mg/kg), read-out: T1/2 (converted)) was 5.3 h, the Tmax ([1]; s.c., 0.8 mg/m^2 (~0.022 mg/kg), read-out: Tmax) was 0.5 h and the half-life ([1]; s.c., 1.3 mg/m^2 (~0.035 mg/kg), read-out: T1/2 (converted)) was 5.6 h. It also gave a Tmax ([1]; s.c., 1.3 mg/m^2 (~0.035 mg/kg), read-out: Tmax) of 0.5 h, a half-life ([1]; s.c., 2.0 mg/m^2 (~0.054 mg/kg), read-out: T1/2 (converted)) of 6.7 h and a Tmax ([1]; s.c., 2.0 mg/m^2 (~0.054 mg/kg), read-out: Tmax) of 0.5 h. For the same compound, the half-life ([1]; s.c., 2.8 mg/m^2 (~0.076 mg/kg), read-out: T1/2 (converted)) was 5.7 h, the Tmax ([1]; s.c., 2.8 mg/m^2 (~0.076 mg/kg), read-out: Tmax) was 0.5 h and the half-life ([1]; s.c., 3.9 mg/m^2 (~0.105 mg/kg), read-out: T1/2 (converted)) was 5.3 h. For the same compound, the Tmax ([1]; s.c., 3.9 mg/m^2 (~0.105 mg/kg), read-out: Tmax) was 0.5 h, the Tmax ([1]; s.c., across cohorts 0.1-3.9 mg/m^2, read-out: mean Tmax) was 0.5 to 0.8 h and the half-life ([1]; s.c., across cohorts 0.1-3.9 mg/m^2, read-out: mean half-life (t1/2)) was 1.7 to 6.7 h. For the same compound, the EC50 [2] was 2000 nM.
